# Measured values as given in patent publication US7476670B2, “Purine derivatives, method for preparing, pharmaceutical compositions and novel use” (Aventis Pharma S.A., priority 2003, dated 2009).
# Where a name gives a salt, the structure may show the parent alone. Read-outs that look alike come from different tables or passages of the source.
# Legend:
# Abl kinase = experiment: Assay for inhibition of Abl activity; format: biochemical; details: fluorescence polarization
# Protocol: The inhibition of the kinase activity is determined by fluorescence polarization, the Abl kinase phosphorylates a peptide detected by adding an anti-phosphopeptide antibody coupled to a fluorescent label.
# The assay is carried out in a final volume of 50 μl; all the reagents are prepared in a buffer: • 20 mM Hepes/NaOH pH 7.5 • 5 mM MgCl2 • 100 μM Na2VO4 • 1 mM DTT • 100 μM EDTA/NaOH • 0.01% Brij35 5 μl of the 10-times concentrated inhibitor are added to 25 μl of enzyme (1000 U/ml final concentration), (Calbiochem ref 102555). After incubation for 5 minutes at ambient temperature, 10 μL of PolyGT (400 ng/ml final concentration) and 10 μL of ATP (5 μM final concentration) are added. The detection is carried out after incubation for 15 minutes at 30° C. • Results obtained expressed as percentage inhibition at 20 μM • Example 24 100% • Example 2 100% • Example 32 100% 6) Assay for Inhibition of ZAP Kinase Activity
# SRC kinase = molecular target: T1, SRC kinase (Homo sapiens, UniProt P12931); experiment: Assay for inhibition of SRC kinase activity; format: biochemical; details: fluorescence polarization, read-out: percentage inhibition at 20 μM
# T1 construct: purchased Upstate Biotechnology 14-117
# Protocol: 2) Assay for Inhibition of SRC Kinase Activity
# The inhibition is determined by fluorescence polarization, the […] kinase phosphorylates a peptide detected by adding an anti-phosphopeptide antibody coupled to a fluorescent label.
# The assay is carried out in a final volume of 50 μl; all the reagents are prepared in a buffer: • 25 mM HEPES/NaOH pH 7.6 • 5 mM MgCl2 • 2 mM MnCl2 • 50 μM Na2VO4 5 μl of the 10-times concentrated inhibitor are added to 25 μl of enzyme (12 U/ml final concentration), (Upstate Biotechnology ref 14-117). After incubation for 5 minutes at ambient temperature, 10 μl of PolyGluTyr 4/1 (150 ng/ml final concentration) and 10 μl of ATP (5 μM final concentration) are added. The detection is carried out after incubation for 20 minutes at ambient temperature. • Results obtained expressed as percentage inhibition at 20 μM • Example 8 98% • Example 15 99% • Example 20 99% • Example 24 99% • Example 27 95% • Example 30 99% • Example 32 100% • Example 38 95% 3) Assay for Inhibition of CDK2 Activity
# Candida albicans = experiment: Minimum inhibitory concentration in liquid medium, micro method (NCCLS M27-A); format: cell-based; details: at least 80% inhibition of growth, read after 24-48 h at 37° C., RPMI 1640, read-out: MIC Candida albicans
# Protocol: (§1) The assay is carried out in a final volume of 40 μl; all the reagents are prepared in a buffer: • 50 mM HEPES pH 7.5 • 0.03% triton X100 • 10 mM MgCl2 • 5% Glycerol • 1 mM DTT 10 μl of the 10-times concentrated inhibitor are added to 5 μl of enzyme (75 ng final concentration), and 5 μl of peptide (1 μM final concentration), then 2.5 μl of incubation buffer containing 40 μM ATP and 2.5 μl of radiolabeled ATP, [^33P]ATP (500 nCi), are added. After incubation for 15 minutes at ambient temperature, 10 μl of incubation buffer containing 192 nM of substrate. […] Reference method for broth dilution antifungal susceptibility testing of yeasts. Approved Standard M27-A. NCCLS, Villanova, Pa.); the minimum concentration with which a visible decrease is observed in the cloudiness of the cell growth (at least 80% compared to a control without product) is the Minimum Inhibitory Concentration (MIC) of the antifungal agent with respect to the strain tested.
# (§2) RPMI 1640 medium (liquid) without L-glutamine is supplemented with L-glutamine (0.3 g/l or 10.5 ml of a solution at 200 mM) and buffered with 34.54 g/l (0.165 M) of morpholinepropanesulfonic acid (MOPS). The medium is sterilized by filtration. 100 μl of RPMI medium are distributed into each well of a 96-well plate. The appropriate volume. of the antifungal solution is distributed in the first column of the microplate and supplemented with 200 μl of medium. Doubling dilutions are made so as to establish a range of 11 concentrations in each line of the microplate. The 12th well of each row will serve as a growth control. The cell suspension is prepared from a culture (liquid or agar) or from a frozen vial, and is diluted in RPMI medium so as to obtain a cell suspension at 5×10^3−2×10^4 cells/ml. 100 μl of the cell suspension are distributed in the microplate. For all species of Candida, the MIC is read after 24-48 h, and for Cryptococcus and Aspergillus after 48-72 h, of incubation at 37° C. in a normal atmosphere. The MIC is read by visual reading, determining the well which contains the lowest dose of antifungal agent which causes at least 80% inhibition of the growth of the fungus.
# Candida glabrata = experiment: as above; format: cell-based; details: Nakaseomyces glabratus; at least 80% inhibition of growth, read after 24-48 h at 37° C., RPMI 1640; read-out: MIC Candida glabrata
# Protocol: as §1, §2
# CaCiv1 = CaCiv1 (Candida albicans, UniProt A0A1D8PH53); experiment: Assay for inhibition of CIV-CDK (CIV1) activity; format: biochemical
# Description: 1) Assay for Inhibition of CIV-CDK (CIV1) Activity
# a) Preparation of the Reagents
# JNK3 kinase = JNK3 kinase (Homo sapiens, UniProt P53779); experiment: Assay for inhibition of JNK3 activity; format: biochemical; details: fluorescence polarization, ATP 6 μM; read-out: IC50s expressed as micromolar
# Protocol: The inhibition of the kinase activity is determined by fluorescence polarization, the JNK3 kinase phosphorylates a peptide detected by adding an anti-phosphopeptide antibody coupled to a fluorescent label.
# The assay is carried out in a final volume of 30 μl; all the reagents are prepared in a buffer: • 50 mM HEPES pH 7.5 • 0.03% triton X100 • 10 mM MgCl2 • 5% Glycerol • 1 mM DTT 10 μl of the 10-times concentrated inhibitor are added to 5 μl of enzyme (40 ng final concentration), and 5 μl of incubation buffer containing 100 ng of substrate and 10 μl of ATP (6 μM final concentration) are added.
# [1] = molecular target: Cyclin Dependent kinase 2 (CDK2) (Homo sapiens, UniProt P24941); experiment: Assay for inhibition of CDK2 activity; format: biochemical; details: [33P]ATP, read-out: percentage inhibition at 20 μM
# Protocol: The inhibition of the kinase activity of Cyclin Dependent kinase 2 (CDK2) is determined by measuring the phosphorylation of its substrate peptide.
# The assay is carried out in a final volume of 50 μl.
# The incubation buffer as follows:
# • 50 mM Hepes/NaOH pH 7.5 • 10 mM MgCl2 • 1 mM DTT 5 μl of the 10-times concentrated inhibitor are added to 25 μl of incubation buffer containing 0.8 U/μL final concentration of the enzyme; 10 μL of incubation buffer containing 0.0025 mg/ml of peptide substrate are then added and, finally, 10 μL of incubation buffer containing 2 mM ATP and radiolabeled ATP, [^33P]ATP (0.25 μCi), are added. The reaction is stopped after incubation for 10 minutes at 37° C. • Results obtained expressed as percentage inhibition at 20 μM • Example 2 97% • Example 27 97% • Example 30 99% 4) Assay for Inhibition of CDK1 Activity
# [2] = CaCiv1 with Cdk2 substrate, [33P]ATP, 30 min ambient temperature, read-out: IC50 as micromolar
# Sequence of JNK3 kinase (P53779 whole entry): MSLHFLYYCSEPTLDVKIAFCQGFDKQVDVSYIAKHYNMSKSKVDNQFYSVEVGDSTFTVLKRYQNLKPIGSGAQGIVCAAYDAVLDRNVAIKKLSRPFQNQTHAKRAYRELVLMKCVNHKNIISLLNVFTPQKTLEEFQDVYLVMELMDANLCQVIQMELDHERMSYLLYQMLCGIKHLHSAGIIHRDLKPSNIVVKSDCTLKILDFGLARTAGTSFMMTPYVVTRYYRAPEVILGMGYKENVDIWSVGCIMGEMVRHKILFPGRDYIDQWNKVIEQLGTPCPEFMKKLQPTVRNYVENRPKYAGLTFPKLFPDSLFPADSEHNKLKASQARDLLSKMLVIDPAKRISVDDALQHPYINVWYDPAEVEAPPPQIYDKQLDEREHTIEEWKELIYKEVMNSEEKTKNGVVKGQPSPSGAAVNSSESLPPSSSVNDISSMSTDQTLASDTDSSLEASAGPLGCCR
# T1 sequence (P12931 whole entry): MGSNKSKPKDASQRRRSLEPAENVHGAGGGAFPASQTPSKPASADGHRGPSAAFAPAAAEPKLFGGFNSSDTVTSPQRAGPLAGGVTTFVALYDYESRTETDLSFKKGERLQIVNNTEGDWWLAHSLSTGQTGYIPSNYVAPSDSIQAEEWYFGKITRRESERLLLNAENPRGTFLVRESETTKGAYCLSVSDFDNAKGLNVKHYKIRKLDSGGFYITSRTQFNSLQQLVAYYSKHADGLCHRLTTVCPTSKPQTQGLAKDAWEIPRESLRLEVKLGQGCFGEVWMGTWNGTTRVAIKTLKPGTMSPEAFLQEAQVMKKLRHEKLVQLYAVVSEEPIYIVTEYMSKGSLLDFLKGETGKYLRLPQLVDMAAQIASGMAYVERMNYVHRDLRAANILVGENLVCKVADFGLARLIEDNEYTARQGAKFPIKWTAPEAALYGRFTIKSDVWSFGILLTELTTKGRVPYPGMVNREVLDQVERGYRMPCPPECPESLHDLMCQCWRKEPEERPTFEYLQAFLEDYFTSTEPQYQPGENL
# Sequence of CaCiv1 (A0A1D8PH53 entry or part of it): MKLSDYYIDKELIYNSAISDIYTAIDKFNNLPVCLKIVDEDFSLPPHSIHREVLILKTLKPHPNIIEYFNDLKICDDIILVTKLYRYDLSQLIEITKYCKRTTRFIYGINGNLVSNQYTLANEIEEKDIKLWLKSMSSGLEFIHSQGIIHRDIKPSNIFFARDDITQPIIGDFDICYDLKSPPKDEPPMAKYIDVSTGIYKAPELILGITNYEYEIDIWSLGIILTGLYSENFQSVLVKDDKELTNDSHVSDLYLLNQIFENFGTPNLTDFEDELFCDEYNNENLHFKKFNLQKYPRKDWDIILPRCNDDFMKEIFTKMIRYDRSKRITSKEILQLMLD
smiles,measurement,setting,value
"N[C@H]1CC[C@H](Nc2nc(N3CCc4cc(Br)ccc43)c3nc[nH]c3n2)CC1 [Example 32, Trans-N-[6-(5-bromo-2,3-dihydro-1H-indol-1-yl)-9H-purin-2-yl]-1,4-cyclohexanediamine]",percentage inhibition at 20 μM,Abl kinase,100%
same,inhibition at 20 µM,SRC kinase,100%
same,MIC,Candida albicans,64 µg/mL
same,MIC,Candida glabrata,64 µg/mL
"N[C@H]1CC[C@H](Nc2nc(N3CCc4cc(Cl)ccc43)c3nc[nH]c3n2)CC1 [Example 7, Trans-N-[6-(5-chloro-2,3-dihydro-1H-indol-1-yl)-9H-purin-2-yl]-1,4-cyclohexanediamine]",IC50,CaCiv1; [2],3.6 µM
"N[C@H]1CC[C@H](Nc2nc(N3CCc4cc(NC(=O)Cc5cccs5)ccc43)c3nc[nH]c3n2)CC1 [Example 41, Trans-N-[1-[2-[(4-aminocyclohexyl)amino]-9H-purin-6-yl]-2,3-dihydro-1H-indol-5-yl]-2-thiopheneacetamide]",IC50,CaCiv1; [2],0.95 µM
"COc1ccc2c(c1)ncn2-c1nc(N[C@H]2CC[C@H](N)CC2)nc2[nH]cnc12 [Example 15, Trans-N-[6-(5-methoxy-1H-benzimidazol-1-yl)-9H-purin-2-yl]-1,4-cyclohexanediamine dihydrochloride]",IC50,JNK3 kinase,0.5 µM
same,IC50,CaCiv1,0.3 µM
same,inhibition at 20 µM,SRC kinase,99%
"CN(C)c1ccc(NC(=O)Nc2ccc3c(c2)CCN3c2nc(N[C@H]3CC[C@H](N)CC3)nc3[nH]cnc23)cc1 [Example 45, Trans-N-[1-[2-[(4-aminocyclohexyl)amino]-9H-purin-6-yl]-2,3-dihydro-1H-indol-5-yl]-N′-[4-(dimethylamino)phenyl]urea]",IC50,CaCiv1; [2],1.3 µM
"N[C@H]1CC[C@H](Nc2nc(N3CCc4ccc([N+](=O)[O-])cc43)c3nc[nH]c3n2)CC1 [Example 44, Trans-N-[6-(6-nitro-2,3-dihydro-1H-indol-1-yl)-9H-purin-2-yl]-1,4-cyclohexanediamine]",IC50,CaCiv1; [2],0.02 µM
"Cc1cc2ncn(-c3nc(N[C@H]4CC[C@H](N)CC4)nc4[nH]cnc34)c2cc1C [Example 5, Trans-N-[6-(5,6-dimethyl-1H-benzimidazol-1-yl)-9H-purin-2-yl]-1,4-cyclohexanediamine]",IC50,CaCiv1; [2],1.1 µM
same,MIC,Candida albicans,64 µg/mL
same,MIC,Candida glabrata,64 µg/mL
"N[C@H]1CC[C@H](Nc2nc(N3CCc4cc(NC(=O)Nc5ccc(Cl)c(Cl)c5)ccc43)c3nc[nH]c3n2)CC1 [Example 43, Trans-N-[1-[2-[(4-aminocyclohexyl)amino]-9H-purin-6-yl]-2,3-dihydro-1H-indol-5-yl]-N′-(3,4-dichlorophenyl)urea]",IC50,CaCiv1; [2],4.4 µM
"CC[C@@H](CO)Nc1nc(-n2cnc3ccccc32)c2nc[nH]c2n1 [Example 27, (2S)-2-[[6-(1H-benzimidazol-1-yl)-9H-purin-2-yl]amino]-1-butanol]",IC50,JNK3 kinase,0.29 µM
same,IC50,CaCiv1; [2],4.3 µM
same,inhibition at 20 µM,SRC kinase,95%
same,inhibition at 20 µM,[1],97%
"N[C@H]1CC[C@H](Nc2nc(N3CCc4cc(NC(=O)CCc5ccccc5)ccc43)c3nc[nH]c3n2)CC1 [Example 42, Trans-N-[1-[2-[(4-aminocyclohexyl)amino]-9H-purin-6-yl]-2,3-dihydro-1H-indol-5-yl]benzenepropanamide]",IC50,CaCiv1; [2],3.3 µM
"N[C@H]1CC[C@H](Nc2nc(-n3ccc4ccccc43)c3nc[nH]c3n2)CC1 [Example 16, Trans-N-[6-(1H-indol-1-yl)-9H-purin-2-yl]-1,4-cyclohexanediamine dihydrochloride]",IC50,CaCiv1,0.31 µM
"Nc1ccc2c(c1)CCN2c1nc(N[C@H]2CC[C@H](N)CC2)nc2[nH]cnc12 [Example 46, Trans-N-[6-(5-amino-2,3-dihydro-1H-indol-1-yl)-9H-purin-2-yl]-1,4-cyclohexanediamine]",IC50,CaCiv1; [2],2 µM
"N[C@H]1CC[C@H](Nc2nc(N3CCc4ccc(C(F)(F)F)cc43)c3nc[nH]c3n2)CC1 [Example 40, Trans-N-[6-[2,3-dihydro-6-(trifluoro-methyl)-1H-indol-1-yl)-9H-purin-2-yl]-1,4-cyclohexanediamine]",IC50,CaCiv1; [2],0.2 µM
"CC(=O)c1ccc2c(c1)CCN2c1nc(N[C@H]2CC[C@H](N)CC2)nc2[nH]cnc12 [Example 39, Trans-1-[1-[2-[(4-aminocyclohexyl)amino]-9H-purin-6-yl]-2,3-dihydro-1H-indol-5-yl]ethanone]",IC50,CaCiv1; [2],3.6 µM
"N[C@H]1CC[C@H](Nc2nc(N3CCc4cc(F)ccc43)c3nc[nH]c3n2)CC1 [Example 38, Trans-N-[6-(5-fluoro-2,3-dihydro-1H-indol-1-yl)-9H-purin-2-yl]-1,4-cyclohexanediamine dihydrochloride]",IC50,JNK3 kinase,0.42 µM
same,inhibition at 20 µM,SRC kinase,95%
